Source: US5710157A, “2,4-diamino-5,6-disubstituted-and 5,6,7-trisubstituted-5-deazapteridines as insecticides” (FMC Corporation, priority 1996, dated 1998)

Tested on: tobacco budworm (Heliothis virescens [Fabricius])
Experiment: diet test: insect growth inhibition and mortality, tobacco budworm larvae, 5-day exposure
Type: in vivo
Settings: second instar larvae
Protocol: The 5-deazapteridine of the present invention were incorporated into an artificial diet for evaluation of insecticidal activity against the tobacco budworm (Heliothis virescens [Fabricius]).
Stock solutions of test chemical in dimethyl sulfoxide were prepared for each rate of application. The rates of application, expressed as the negative log of the molar concentration, and the corresponding concentrations of the stock solution prepared for each rate are shown below:
One hundred microliters of each of the stock solutions was manually stirred into 50 mL of a molten (65°-70° C.) wheat germ-based artificial diet. The 50 mL of molten diet containing the test chemical was poured evenly into twenty wells in the outer four rows of a twenty-five well, five row plastic tray. Each well in the tray was about 1 cm in depth, with an opening of 3 cm by 4 cm at the lip. Molten diet containing only dimethyl sulfoxide at the levels used in the test chemical-treated diet was poured into the five wells in the third row of the tray. Each tray therefore contained one test chemical at a single rate of application, together with an untreated control.
Single second instar tobacco budworm larvae were placed in each well. The larvae were selected at a stage of growth at which they uniformly weigh about 5 mg each. Upon completion of infestation, a sheet of clear plastic was heat-sealed over the top of the tray using a common household flat iron. The trays were held at 25° C. at 60% relative humidity for five days in a growth chamber. Lighting was set at 14 hours of light and 10 hours of darkness.
After the 5-day exposure period, mortality counts were taken, and the surviving insects were weighed. From the weights of the surviving insects that fed on the treated diet as compared to those insects that fed on the untreated diet, the percent growth inhibition caused by each test chemical was determined. […] Where possible, the negative log of the concentration of the test chemical that provided 50% mortality (pLC50) was also determined.
The compounds of the present invention were tested in the diet test as insect growth inhibitors against the larvae of tobacco budworm (above).

## COc1ccc(OC)c(Cc2cnc3nc(N)nc(N)c3c2C)c1 [Compound 90, 2,4-diamino-5-methyl-6-(2,5-dimethoxyphenylmethyl)-5-deazapteridine]
Heliothis virescens, 120 h, artificial diet, linear regression, read-out: pI50: negative log of the concentration that provides 50% growth inhibition (converted)
  IC50: 1000 nM
Rate of application 4 (negative log of molar concentration in diet)
  Percent Growth Inhibition: 95%
Rate of application 5 (negative log of molar concentration in diet)
  Percent Growth Inhibition: 87%
Rate of application 6 (negative log of molar concentration in diet)
  Percent Growth Inhibition: 41%
Rate of application 7 (negative log of molar concentration in diet)
  Percent Growth Inhibition: 26%
